Laboratory results taken from PubChem BioAssay (NCI).
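Growth conditions: 96-well plates. Treatment: test compound, 48 hours, 5 concentrations. Analysis: linear interpolation between bracketing concentrations; unreached endpoints set to highest concentration. TGI is the concentration that stops growth completely.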

What was measured:
Experiment in all cases: DTP human tumour cell line panel, 48 h
[1] = tested on: A549 NSCLC
[2] = tested on: ACHN renal
[3] = tested on: CCRF-CEM leukemia
[4] = tested on: DLD-1 colon
[5] = tested on: DMS 114 small cell lung
[6] = tested on: DMS 273 small cell lung
[7] = tested on: HCT-116 colon
[8] = tested on: HCT-15 colon
[9] = tested on: HL-60(TB) leukemia
[10] = tested on: HT29 colon
[11] = tested on: K-562 leukemia
[12] = tested on: KM12 colon
[13] = tested on: LOX IMVI melanoma
[14] = tested on: LXFL 529 NSCLC
[15] = tested on: MALME-3M melanoma
[16] = tested on: MOLT-4 leukemia
[17] = tested on: NCI-H226 lung
[18] = tested on: NCI-H23 lung
[19] = tested on: NCI-H460 lung
[20] = tested on: NCI-H522 lung
[21] = tested on: OVCAR-3 ovarian
[22] = tested on: OVCAR-4 ovarian
[23] = tested on: OVCAR-8 ovarian
[24] = tested on: RXF 393 renal
[25] = tested on: SF-268 CNS
[26] = tested on: SF-295 CNS
[27] = tested on: SF-539 CNS
[28] = tested on: SK-MEL-2 melanoma
[29] = tested on: SK-MEL-28 melanoma
[30] = tested on: SK-MEL-5 melanoma
[31] = tested on: SK-OV-3 ovarian
[32] = tested on: SN12C renal
[33] = tested on: SNB-19 CNS
[34] = tested on: SNB-75 CNS
[35] = tested on: SNB-78 CNS
[36] = tested on: SW-620 colon
[37] = tested on: TK-10 renal
[38] = tested on: U251 CNS
[39] = tested on: UACC-257 melanoma
[40] = tested on: UACC-62 melanoma
[41] = tested on: XF 498 CNS
[42] = tested on: 786-0 renal
[43] = tested on: CAKI-1 renal
[44] = tested on: COLO 205 colon
[45] = tested on: EKVX NSCLC
[46] = tested on: HCC-2998 colon
[47] = tested on: HOP-62 NSCLC
[48] = tested on: HOP-92 NSCLC
[49] = tested on: IGROV1 ovarian
[50] = tested on: KM20L2 colon
[51] = tested on: M14 melanoma
[52] = tested on: M19-MEL melanoma
[53] = tested on: OVCAR-5 ovarian
[54] = tested on: RPMI-8226 leukemia
[55] = tested on: SR leukemia
[56] = tested on: UO-31 renal

SMILES: CN(C)CCCNC(=O)c1cccc2ccccc12
- TGI [1]: > 100 µM
- TGI [2]: > 100 µM
- TGI [3]: > 100 µM
- TGI [4]: > 100 µM
- TGI [5]: > 100 µM
- TGI [6]: > 100 µM
- TGI [7]: > 100 µM
- TGI [8]: > 100 µM
- TGI [9]: > 100 µM
- TGI [10]: > 100 µM
- TGI [11]: > 100 µM
- TGI [12]: > 100 µM
- TGI [13]: > 100 µM
- TGI [14]: > 100 µM
- TGI [15]: > 100 µM
- TGI [16]: > 100 µM
- TGI [17]: > 100 µM
- TGI [18]: > 100 µM
- TGI [19]: > 100 µM
- TGI [20]: > 100 µM
- TGI [21]: > 100 µM
- TGI [22]: > 100 µM
- TGI [23]: > 100 µM
- TGI [24]: > 100 µM
- TGI [25]: > 100 µM
- TGI [26]: > 100 µM
- TGI [27]: > 100 µM
- TGI [28]: > 100 µM
- TGI [29]: > 100 µM
- TGI [30]: > 100 µM
- TGI [31]: > 100 µM
- TGI [32]: > 100 µM
- TGI [33]: > 100 µM
- TGI [34]: > 100 µM
- TGI [35]: > 100 µM
- TGI [36]: > 100 µM
- TGI [37]: > 100 µM
- TGI [38]: > 100 µM
- TGI [39]: > 100 µM
- TGI [40]: > 100 µM
- TGI [41]: > 100 µM

SMILES: c1ccc(C2N=NN(c3ccccc3)C2N2CCCCC2)cc1 (stereo not given)
- TGI [42]: > 100 µM
- TGI [1]: > 100 µM
- TGI [2]: > 100 µM
- TGI [43]: > 100 µM
- TGI [3]: > 100 µM
- TGI [44]: > 100 µM
- TGI [4]: > 100 µM
- TGI [5]: > 100 µM
- TGI [45]: > 100 µM
- TGI [46]: > 100 µM
- TGI [7]: > 100 µM
- TGI [8]: > 100 µM
- TGI [9]: > 100 µM
- TGI [47]: > 100 µM
- TGI [48]: 62.4 µM
- TGI [10]: > 100 µM
- TGI [49]: > 100 µM
- TGI [11]: > 100 µM
- TGI [12]: > 100 µM
- TGI [50]: > 100 µM
- TGI [13]: > 100 µM
- TGI [14]: > 100 µM
- TGI [51]: > 100 µM
- TGI [52]: > 100 µM
- TGI [15]: > 100 µM
- TGI [16]: > 100 µM
- TGI [17]: > 100 µM
- TGI [18]: > 100 µM
- TGI [20]: > 100 µM
- TGI [21]: > 100 µM
- TGI [22]: > 100 µM
- TGI [53]: > 100 µM
- TGI [54]: > 100 µM
- TGI [25]: > 100 µM
- TGI [26]: > 100 µM
- TGI [27]: > 100 µM
- TGI [28]: > 100 µM
- TGI [29]: > 100 µM
- TGI [30]: > 100 µM
- TGI [31]: 98.3 µM
- TGI [32]: > 100 µM
- TGI [33]: > 100 µM
- TGI [34]: 55 µM
- TGI [35]: > 100 µM
- TGI [55]: > 100 µM
- TGI [36]: > 100 µM
- TGI [37]: > 100 µM
- TGI [38]: > 100 µM
- TGI [39]: > 100 µM
- TGI [40]: > 100 µM
- TGI [56]: > 100 µM
- TGI [41]: > 100 µM

SMILES: OCCCCOC(c1ccccc1)(c1ccccc1)c1ccccc1
- TGI [42]: > 100 µM
- TGI [1]: > 100 µM
- TGI [2]: > 100 µM
- TGI [43]: > 100 µM
- TGI [3]: > 100 µM
- TGI [44]: > 100 µM
- TGI [4]: > 100 µM
- TGI [5]: > 100 µM
- TGI [6]: > 100 µM
- TGI [46]: > 100 µM
- TGI [7]: > 100 µM
- TGI [8]: > 100 µM
- TGI [9]: > 100 µM
- TGI [47]: > 100 µM
- TGI [48]: > 100 µM
- TGI [10]: > 100 µM
- TGI [49]: > 100 µM
- TGI [11]: > 100 µM
- TGI [12]: > 100 µM
- TGI [50]: > 100 µM
- TGI [13]: > 100 µM
- TGI [14]: > 100 µM
- TGI [51]: > 100 µM
- TGI [15]: > 100 µM
- TGI [16]: > 100 µM
- TGI [17]: > 100 µM
- TGI [18]: > 100 µM
- TGI [19]: > 100 µM
- TGI [20]: > 100 µM
- TGI [21]: > 100 µM
- TGI [22]: > 100 µM
- TGI [53]: > 100 µM
- TGI [23]: > 100 µM
- TGI [54]: > 100 µM
- TGI [24]: > 100 µM
- TGI [25]: > 100 µM
- TGI [26]: > 100 µM
- TGI [27]: > 100 µM
- TGI [29]: > 100 µM
- TGI [30]: > 100 µM
- TGI [31]: > 100 µM
- TGI [32]: > 100 µM
- TGI [34]: > 100 µM
- TGI [35]: > 100 µM
- TGI [55]: > 100 µM
- TGI [36]: > 100 µM
- TGI [37]: > 100 µM
- TGI [38]: > 100 µM
- TGI [39]: > 100 µM
- TGI [40]: > 100 µM
- TGI [56]: > 100 µM
- TGI [41]: > 100 µM
